Laboratory results as given in patent US12398154B2, “Azaquinazoline pan-KRas inhibitors” (Mirati Therapeutics, Inc., priority 2020, dated 2025).
pIC50: −log10 of the molar value.

How the values were obtained:
[1] = test system: pERK in MKN1 cells; assay: Inhibition of KRas phosphorylation of ERK (Cisbio HTRF pERK assay); details: Homo sapiens, MKN-1, 3 h, read-out: Inhibition (HTRF IC50) of KRas-mediated Phosphorylation of ERK, MKN1
[2] = test system: pERK in H460 cells; assay: as above; details: Homo sapiens, NCI-H460, read-out: Inhibition (HTRF IC50) of KRas-mediated Phosphorylation of ERK, H460
[3] = molecular target: KRas G12V (Homo sapiens, UniProt P01116, G12V); assay: biochemical;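 also: KRas binding measured by TR-FRET displacement at room temperature, IC50 fitted from percent of control values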
KRas G12V, sequence (P01116 1-169 isoform P01116-2 G12V): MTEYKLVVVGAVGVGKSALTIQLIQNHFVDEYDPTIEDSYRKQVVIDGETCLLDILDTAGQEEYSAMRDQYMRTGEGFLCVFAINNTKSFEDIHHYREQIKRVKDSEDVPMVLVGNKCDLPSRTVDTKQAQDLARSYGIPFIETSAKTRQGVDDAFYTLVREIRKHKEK

[4] = test system: pERK in H727 cells; assay: Inhibition of KRas phosphorylation of ERK (Cisbio HTRF pERK assay); details: Homo sapiens, NCI-H727, read-out: Inhibition (HTRF IC50) of KRas-mediated Phosphorylation of ERK, H727
[5] = test system: pERK in HCT116 cells; assay: as above; details: Homo sapiens, HCT-116, read-out: Inhibition (HTRF IC50) of KRas-mediated Phosphorylation of ERK, HCT116
[6] = molecular target: KRas G12R (Homo sapiens, UniProt P01116, G12R); assay: biochemical;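 also: TR-FRET displacement assay of compound binding to KRas, read after one hour at room temperature, potency from a four-parameter fit of percent-of-control values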
KRas G12R, sequence (P01116 1-169 isoform P01116-2 G12R): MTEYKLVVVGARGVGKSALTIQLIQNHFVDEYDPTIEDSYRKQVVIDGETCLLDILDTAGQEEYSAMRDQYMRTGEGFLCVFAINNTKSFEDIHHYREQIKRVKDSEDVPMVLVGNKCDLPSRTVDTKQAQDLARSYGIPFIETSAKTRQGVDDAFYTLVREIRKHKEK

[7] = molecular target: KRas G12D (Homo sapiens, UniProt P01116, G12D); assay: biochemical;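 also: TR-FRET displacement binding assay on KRas, read after a one-hour incubation at room temperature, IC50 fitted from percent-of-control values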
KRas G12D, sequence (P01116 1-169 isoform P01116-2 G12D): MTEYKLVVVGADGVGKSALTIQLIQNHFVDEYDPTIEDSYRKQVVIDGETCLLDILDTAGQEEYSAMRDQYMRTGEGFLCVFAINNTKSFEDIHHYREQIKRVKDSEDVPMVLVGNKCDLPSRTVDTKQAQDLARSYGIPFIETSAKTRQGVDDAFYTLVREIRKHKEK

[8] = test system: pERK in H358 cells; assay: Inhibition of KRas phosphorylation of ERK (Cisbio HTRF pERK assay); details: Homo sapiens, NCI-H358, read-out: Inhibition (HTRF IC50) of KRas-mediated Phosphorylation of ERK, H358
[9] = test system: pERK in A549 cells; assay: as above; details: Homo sapiens, A549, read-out: Inhibition (HTRF IC50) of KRas-mediated Phosphorylation of ERK, A549
[10] = test system: pERK in ASPC1 cells; assay: as above; details: Homo sapiens, ASPC1, read-out: Inhibition (HTRF IC50) of KRas-mediated Phosphorylation of ERK, AsPC-1
[11] = test system: pERK in PSN1 cells; assay: as above; details: Homo sapiens, PSN1, 3 h, read-out: Inhibition (HTRF IC50) of KRas-mediated Phosphorylation of ERK, PSN1

C[C@@]1(O)CCCN(c2nc(OC[C@@]34CCCN3C[C@H](F)C4)nc3c(F)c(-c4cc(O)cc5ccc(F)c(Cl)c45)ncc23)C1 [Example 418, (R)-1-(7-(8-chloro-7-fluoro-3-hydroxynaphthalen-1-yl)-8-fluoro-2-(((2R,7aS)-2-fluorohexahydro-1H-pyrrolizin-7a-yl)methoxy)pyrido[4,3-d]pyrimidin-4-yl)-3-methylpiperidin-3-ol] was tested, and the pIC50 [1] was 8.52, the pIC50 [2] was 7.28 and the pIC50 [3] was no less than 8.70. The pIC50 [4] was 7.49, the pIC50 [5] was 7.22 and the pIC50 [6] was 8.52. It also gave a pIC50 [7] of no less than 8.70, a pIC50 [8] of 7.96 and a pIC50 [9] of 7.13. The pIC50 [10] was 7.60 and the pIC50 [11] was 6.22.
For CCc1c(F)ccc2cc(O)cc(-c3ncc4c(N5CCCC6(CSC6)C5)nc(OC[C@@]56CCCN5C[C@H](F)C6)nc4c3F)c12 [Example 365, 5-ethyl-6-fluoro-4-(8-fluoro-2-(((2R,7aS)-2-fluorohexahydro-1H-pyrrolizin-7a-yl)methoxy)-4-(2-thia-6-azaspiro[3.5]nonan-6-yl)pyrido[4,3-d]pyrimidin-7-yl)naphthalen-2-ol], the pIC50 [1] was 8.00, the pIC50 [2] was 7.77 and the pIC50 [3] was no less than 8.70. For the same compound, the pIC50 [4] was 7.62, the pIC50 [5] was 7.11 and the pIC50 [6] was no less than 8.70. It also gave a pIC50 [7] of no less than 8.70, a pIC50 [8] of 8.22 and a pIC50 [9] of 7.96. It also gave a pIC50 [10] of 7.77 and a pIC50 [11] of 5.54.
In the case of CCc1c(F)ccc2cc(O)cc(-c3ncc4c(N5CCCn6nc(C(=O)N7CCOCC7)cc6C5)nc(OC[C@@]56CCCN5C[C@H](F)C6)nc4c3F)c12 [Example 354, (5-(7-(8-ethyl-7-fluoro-3-hydroxynaphthalen-1-yl)-8-fluoro-2-(((2R,7aS)-2-fluorohexahydro-1H-pyrrolizin-7a-yl)methoxy)pyrido[4,3-d]pyrimidin-4-yl)-5,6,7,8-tetrahydro-4H-pyrazolo[1,5-a][1,4]diazepin-2-yl)(morpholino)methanone], the pIC50 [1] was 7.85, the pIC50 [2] was 6.52 and the pIC50 [3] was no less than 8.70. The pIC50 [4] was 7.32, the pIC50 [5] was 6.21 and the pIC50 [6] was no less than 8.70. The pIC50 [7] was no less than 8.70, the pIC50 [8] was 7.77 and the pIC50 [9] was 7.19. It also gave a pIC50 [10] of 7.85 and a pIC50 [11] of no more than 5.00.
C#Cc1c(F)ccc2cc(O)cc(-c3ncc4c(N5CCCn6nc(C(=O)N(C)C)cc6C5)nc(OC[C@@]56CCCN5C[C@H](F)C6)nc4c3F)c12 [Example 398, 5-(7-(8-ethynyl-7-fluoro-3-hydroxynaphthalen-1-yl)-8-fluoro-2-(((2R,7aS)-2-fluorohexahydro-1H-pyrrolizin-7a-yl)methoxy)pyrido[4,3-d]pyrimidin-4-yl)-N,N-dimethyl-5,6,7,8-tetrahydro-4H-pyrazolo[1,5-a][1,4]diazepine-2-carboxamide] gave a pIC50 [1] of 8.15, a pIC50 [2] of 6.41 and a pIC50 [3] of no less than 8.70. For the same compound, the pIC50 [4] was 7.59, the pIC50 [5] was 6.46 and the pIC50 [6] was no less than 8.70. The pIC50 [7] was no less than 8.70, the pIC50 [8] was 8.00 and the pIC50 [9] was 6.99. The pIC50 [10] was 7.60 and the pIC50 [11] was 5.17.
Work on CCc1c(F)ccc2cc(O)cc(-c3ncc4c(N5CCCn6nc(C(=O)N7CCCC7)cc6C5)nc(OC[C@@]56CCCN5C[C@H](F)C6)nc4c3F)c12 [Example 355, (5-(7-(8-ethyl-7-fluoro-3-hydroxynaphthalen-1-yl)-8-fluoro-2-(((2R,7aS)-2-fluorohexahydro-1H-pyrrolizin-7a-yl)methoxy)pyrido[4,3-d]pyrimidin-4-yl)-5,6,7,8-tetrahydro-4H-pyrazolo[1,5-a][1,4]diazepin-2-yl)(pyrrolidin-1-yl)methanone] yielded a pIC50 [1] of 7.77, a pIC50 [2] of 6.57 and a pIC50 [3] of no less than 8.70. For the same compound, the pIC50 [4] was 7.52, the pIC50 [5] was 6.33 and the pIC50 [6] was no less than 8.70. For the same compound, the pIC50 [7] was no less than 8.70, the pIC50 [8] was 7.80 and the pIC50 [9] was 6.85. It also gave a pIC50 [10] of 8.10 and a pIC50 [11] of 5.17.
CCc1c(F)ccc2cc(O)cc(-c3ncc4c(N5CCCc6nn(C(=O)N(C)C)cc6C5)nc(OC[C@@]56CCCN5C[C@H](F)C6)nc4c3F)c12 [Example 353, 5-(7-(8-ethyl-7-fluoro-3-hydroxynaphthalen-1-yl)-8-fluoro-2-(((2R,7aS)-2-fluorohexahydro-1H-pyrrolizin-7a-yl)methoxy)pyrido[4,3-d]pyrimidin-4-yl)-N,N-dimethyl-5,6,7,8-tetrahydropyrazolo[4,3-c]azepine-2(4H)-carboxamide] gave a pIC50 [1] of 7.62, a pIC50 [2] of 6.83 and a pIC50 [3] of no less than 8.70. The pIC50 [4] was 7.47, the pIC50 [5] was 6.40 and the pIC50 [6] was no less than 8.70. It also gave a pIC50 [7] of no less than 8.70, a pIC50 [8] of 7.72 and a pIC50 [9] of 7.10. For the same compound, the pIC50 [10] was 8.15 and the pIC50 [11] was 5.32.
Compound CC1(O)COCCN(c2nc(OC[C@@]34CCCN3C[C@H](F)C4)nc3c(F)c(-c4cc(O)cc5ccc(F)c(Br)c45)ncc23)C1 (stereo partly drawn) [Example 400, 4-(7-(8-bromo-7-fluoro-3-hydroxynaphthalen-1-yl)-8-fluoro-2-(((2R,7aS)-2-fluorohexahydro-1H-pyrrolizin-7a-yl)methoxy)pyrido[4,3-d]pyrimidin-4-yl)-6-methyl-1,4-oxazepan-6-ol] has a pIC50 [1] of 8.15, a pIC50 [2] of 7.39 and a pIC50 [3] of no less than 8.70. It also gave a pIC50 [4] of 7.06, a pIC50 [5] of 6.95 and a pIC50 [6] of no less than 8.70. For the same compound, the pIC50 [7] was no less than 8.70, the pIC50 [8] was 8.05 and the pIC50 [9] was 7.21. The pIC50 [10] was 7.57 and the pIC50 [11] was 5.45.
CCc1c(F)ccc2cc(O)cc(-c3ncc4c(N5CCCn6nc(C(=O)NC(C)C)cc6C5)nc(OC[C@@]56CCCN5C[C@H](F)C6)nc4c3F)c12 [Example 357, 5-(7-(8-ethyl-7-fluoro-3-hydroxynaphthalen-1-yl)-8-fluoro-2-(((2R,7aS)-2-fluorohexahydro-1H-pyrrolizin-7a-yl)methoxy)pyrido[4,3-d]pyrimidin-4-yl)-N-isopropyl-5,6,7,8-tetrahydro-4H-pyrazolo[1,5-a][1,4]diazepine-2-carboxamide] was tested, and the pIC50 [1] was 7.15, the pIC50 [2] was 6.09 and the pIC50 [3] was no less than 8.70. It also gave a pIC50 [4] of 7.20, a pIC50 [5] of 5.87 and a pIC50 [6] of no less than 8.70. It also gave a pIC50 [7] of no less than 8.70, a pIC50 [8] of 7.57 and a pIC50 [9] of 6.24. The pIC50 [10] was 7.89 and the pIC50 [11] was 5.13.
CCc1c(F)ccc2cc(O)cc(-c3ncc4c(N5CCCOC(CO)C5)nc(OC[C@@]56CCCN5C[C@H](F)C6)nc4c3F)c12 (stereo partly drawn) [Example 343, 5-ethyl-6-fluoro-4-(8-fluoro-2-(((2R,7aS)-2-fluorotetrahydro-1H-pyrrolizin-7a(5H)-yl)methoxy)-4-(2-(hydroxymethyl)-1,4-oxazepan-4-yl)pyrido[4,3-d]pyrimidin-7-yl)naphthalen-2-ol] showed a pIC50 [1] of 8.40, a pIC50 [2] of 6.89 and a pIC50 [3] of no less than 8.70. It also gave a pIC50 [4] of 7.62, a pIC50 [5] of 6.89 and a pIC50 [6] of no less than 8.70. For the same compound, the pIC50 [7] was no less than 8.70, the pIC50 [8] was 8.15 and the pIC50 [9] was 7.04. The pIC50 [10] was 7.22 and the pIC50 [11] was 5.23.
CCc1c(F)ccc2cc(O)cc(-c3ncc4c(N5CCOC[C@@](C)(O)C5)nc(OCC5(CN(C)C)CC5)nc4c3F)c12 [Example 361, (S)-4-(2-((1-((dimethylamino)methyl)cyclopropyl)methoxy)-7-(8-ethyl-7-fluoro-3-hydroxynaphthalen-1-yl)-8-fluoropyrido[4,3-d]pyrimidin-4-yl)-6-methyl-1,4-oxazepan-6-ol] was tested, and the pIC50 [1] was 8.52, the pIC50 [2] was 7.07 and the pIC50 [3] was no less than 8.70. For the same compound, the pIC50 [4] was 7.31, the pIC50 [5] was 6.64 and the pIC50 [6] was no less than 8.70. For the same compound, the pIC50 [7] was no less than 8.70, the pIC50 [8] was 7.77 and the pIC50 [9] was 6.91. It also gave a pIC50 [10] of 8.10 and a pIC50 [11] of 5.17.
CCc1c(F)ccc2cc(O)cc(-c3ncc4c(N5CCC[C@@](C)(O)C5)nc(OC[C@@]56CCCN5[C@@H](COC(=O)N(C)C)CC6)nc4c3F)c12 [Example 512, ((3R,7aS)-7a-(((7-(8-ethyl-7-fluoro-3-hydroxynaphthalen-1-yl)-8-fluoro-4-((R)-3-hydroxy-3-methylpiperidin-1-yl)pyrido[4,3-d]pyrimidin-2-yl)oxy)methyl)hexahydro-1H-pyrrolizin-3-yl)methyl dimethylcarbamate] gave a pIC50 [1] of 7.85, a pIC50 [2] of 6.89 and a pIC50 [3] of 8.30. The pIC50 [4] was 7.10, the pIC50 [5] was 6.54 and the pIC50 [6] was 8.10. It also gave a pIC50 [7] of 8.30, a pIC50 [8] of 7.28 and a pIC50 [9] of 7.17. It also gave a pIC50 [10] of 7.26 and a pIC50 [11] of 5.55.
